The record followed here is ChEMBL document CHEMBL1151405, “Biological and phytochemical investigation of Clausena excavata” (J Nat Prod, 1982).

Each structure is given as a SMILES string. Active and inactive are the calls of the source. The rule behind the calls is not given here.

Holding throughout (type): functional, organism-based
Assay [1] deals with Streptococcus pneumoniae. Description: Antimicrobial activity against Pneumococcus clinical isolates at 500 ppm after 24 hrs.
Assay [2] concerns Escherichia coli. The assay can be described thus: Antimicrobial activity against Escherichia coli 10536 at 500 ppm after 24 hrs.
The test system of assay [3] is Bordetella bronchiseptica. The assay can be described thus: Antimicrobial activity against Bordetella bronchiseptica 4614 at 500 ppm after 24 hrs.
For assay [4], the system named is Staphylococcus aureus. The assay can be described thus: Antimicrobial activity against penicillin-resistant Staphylococcus aureus at 500 ppm after 24 hrs.
The test system of assay [5] is Micrococcus luteus. The assay can be described thus: Antimicrobial activity against Sarcina lutea 9341 at 500 ppm after 24 hrs.
The subject of assay [6] is Aspergillus niger. The assay can be described thus: Antimicrobial activity against Aspergillus niger at 500 ppm after 24 hrs.
Assay [7] concerns Saccharomyces pastorianus. Description: Antimicrobial activity against Saccharomyces carlsbergensis at 500 ppm after 24 hrs.
Assay [8] relates to Bacillus subtilis. The assay can be described thus: Antimicrobial activity against Bacillus subtilis 6633 at 500 ppm after 24 hrs.
The subject of assay [9] is Salmonella enterica subsp. enterica serovar Gallinarum. Description: Antimicrobial activity against Salmonella gallinarum X142 at 500 ppm after 24 hrs.
The subject of assay [10] is Staphylococcus aureus. Description: Antimicrobial activity against Staphylococcus aureus 6538-P at 500 ppm after 24 hrs.
Assay [11] deals with Pseudomonas aeruginosa. The assay can be described thus: Antimicrobial activity against Pseudomonas aeruginosa NCTC 10490 at 500 ppm after 24 hrs.
Assay [12] deals with Saccharomyces pastorianus. The assay can be described thus: Antimicrobial activity against Saccharomyces carlsbergensis at 100 ppm after 24 hrs.
Assay [13] relates to Staphylococcus aureus. The assay can be described thus: Antimicrobial activity against penicilln-resistant Staphylococcus aureus at 10 ppm after 24 hrs.
Assay [14] deals with Pseudomonas aeruginosa. The assay can be described thus: Antimicrobial activity against Pseudomonas aeruginosa NCTC 10490 at 100 ppm after 48 hrs.
The test system of assay [15] is Escherichia coli. The assay can be described thus: Antimicrobial activity against Escherichia coli 10536 at 200 ppm after 24 hrs.
Assay [16] deals with Bacillus subtilis. The assay can be described thus: Antimicrobial activity against Bacillus subtilis 6633 at 5 ppm after 24 hrs.
Assay [17] relates to Salmonella enterica subsp. enterica serovar Gallinarum. Description: Antimicrobial activity against Salmonella gallinarum X142 at 50 ppm after 24 hrs.
Assay [18] relates to Saccharomyces pastorianus. The assay can be described thus: Antimicrobial activity against Saccharomyces carlsbergensis at 200 ppm after 24 hrs.
Assay [19] has as its system Escherichia coli. Description: Antimicrobial activity against Escherichia coli 10536 at 10 ppm after 24 hrs.
For assay [20], the system named is Salmonella enterica subsp. enterica serovar Gallinarum. Description: Antimicrobial activity against Salmonella gallinarum X142 at 5 ppm after 24 hrs.
The test system of assay [21] is Micrococcus luteus. The assay can be described thus: Antimicrobial activity against Sarcina lutea 9341 at 50 ppm after 24 hrs.
Assay [22] relates to Micrococcus luteus. The assay can be described thus: Antimicrobial activity against Sarcina lutea 9341 at 10 ppm after 24 hrs.
Assay [23] has as its system Pseudomonas aeruginosa. Description: Antimicrobial activity against Pseudomonas aeruginosa NCTC 10490 at 10 ppm after 48 hrs.
The test system of assay [24] is Streptococcus pneumoniae. Description: Antimicrobial activity against Pneumococcus clinical isolates at 50 ppm after 48 hrs.
The test system of assay [25] is Aspergillus niger. The assay can be described thus: Antimicrobial activity against Aspergillus niger at 50 ppm after 24 hrs.
In assay [26] the test system is Saccharomyces pastorianus. Description: Antimicrobial activity against Saccharomyces carlsbergensis at 10 ppm after 24 hrs.
Assay [27] has as its system Escherichia coli. Description: Antimicrobial activity against Escherichia coli 10536 at 5 ppm after 24 hrs.
Assay [28] concerns Staphylococcus aureus. Description: Antimicrobial activity against penicillin-resistant Staphylococcus aureus at 50 ppm after 24 hrs.
In assay [29] the test system is Bacillus subtilis. Description: Antimicrobial activity against Bacillus subtilis 6633 at 50 ppm after 48 hrs.
The subject of assay [30] is Aspergillus niger. Description: Antimicrobial activity against Aspergillus niger at 10 ppm after 24 hrs.
The test system of assay [31] is Salmonella enterica subsp. enterica serovar Gallinarum. The assay can be described thus: Antimicrobial activity against Salmonella gallinarum X142 at 10 ppm after 24 hrs.
Assay [32] relates to Aspergillus niger. The assay can be described thus: Antimicrobial activity against Aspergillus niger at 100 ppm after 24 hrs.
Assay [33] has as its system Streptococcus pneumoniae. Description: Antimicrobial activity against Pneumococcus clinical isolates at 200 ppm after 48 hrs.
Assay [34] deals with Bordetella bronchiseptica. Description: Antimicrobial activity against Bordetella bronchiseptica 4614 at 100 ppm after 48 hrs.
For assay [35], the system named is Bordetella bronchiseptica. Description: Antimicrobial activity against Bordetella bronchiseptica 4614 at 5 ppm after 24 hrs.
Assay [36] has as its system Aspergillus niger. The assay can be described thus: Antimicrobial activity against Aspergillus niger at 200 ppm after 24 hrs.
For assay [37], the system named is Micrococcus luteus. The assay can be described thus: Antimicrobial activity against Sarcina lutea 9341 at 5 ppm after 24 hrs.
The subject of assay [38] is Micrococcus luteus. The assay can be described thus: Antimicrobial activity against Sarcina lutea 9341 at 200 ppm after 48 hrs.
Assay [39] has as its system Bacillus subtilis. The assay can be described thus: Antimicrobial activity against Bacillus subtilis 6633 at 100 ppm after 48 hrs.
The subject of assay [40] is Staphylococcus aureus. Description: Antimicrobial activity against Staphylococcus aureus 6538-P at 50 ppm after 48 hrs.
Assay [41] concerns Saccharomyces pastorianus. Description: Antimicrobial activity against Saccharomyces carlsbergensis at 5 ppm after 24 hrs.
Assay [42] deals with Streptococcus pneumoniae. Description: Antimicrobial activity against Pneumococcus clinical isolates at 10 ppm after 48 hrs.
In assay [43] the test system is Bordetella bronchiseptica. The assay can be described thus: Antimicrobial activity against Bordetella bronchiseptica 4614 at 10 ppm after 48 hrs.
The subject of assay [44] is Aspergillus niger. The assay can be described thus: Antimicrobial activity against Aspergillus niger at 5 ppm after 24 hrs.
Assay [45] deals with Streptococcus pneumoniae. The assay can be described thus: Antimicrobial activity against Pneumococcus clinical isolates at 100 ppm after 48 hrs.
Assay [46] deals with Staphylococcus aureus. Description: Antimicrobial activity against Staphylococcus aureus 6538-P at 100 ppm after 48 hrs.
The test system of assay [47] is Bacillus subtilis. The assay can be described thus: Antimicrobial activity against Bacillus subtilis 6633 at 200 ppm after 48 hrs.
The subject of assay [48] is Staphylococcus aureus. The assay can be described thus: Antimicrobial activity against penicilln-resistant Staphylococcus aureus at 100 ppm after 24 hrs.
Assay [49] relates to Staphylococcus aureus. The assay can be described thus: Antimicrobial activity against Staphylococcus aureus 6538-P at 10 ppm after 48 hrs.
Assay [50] relates to Staphylococcus aureus. Description: Antimicrobial activity against penicillin-resistant Staphylococcus aureus at 200 ppm after 24 hrs.
Assay [51] concerns Bacillus subtilis. The assay can be described thus: Antimicrobial activity against Bacillus subtilis 6633 at 10 ppm after 48 hrs.
The subject of assay [52] is Staphylococcus aureus. Description: Antimicrobial activity against penicillin-resistant Staphylococcus aureus at 5 ppm after 24 hrs.
Assay [53] has as its system Escherichia coli. The assay can be described thus: Antimicrobial activity against Escherichia coli 10536 at 100 ppm after 24 hrs.
The test system of assay [54] is Bordetella bronchiseptica. Description: Antimicrobial activity against Bordetella bronchiseptica 4614 at 200 ppm after 48 hrs.
Assay [55] deals with Staphylococcus aureus. Description: Antimicrobial activity against Staphylococcus aureus 6538-P at 200 ppm after 48 hrs.
The test system of assay [56] is Salmonella enterica subsp. enterica serovar Gallinarum. Description: Antimicrobial activity against Salmonella gallinarum X142 at 200 ppm after 24 hrs.
In assay [57] the test system is Saccharomyces pastorianus. The assay can be described thus: Antimicrobial activity against Saccharomyces carlsbergensis at 50 ppm after 24 hrs.
Assay [58] concerns Escherichia coli. The assay can be described thus: Antimicrobial activity against Escherichia coli 10536 at 50 ppm after 24 hrs.
In assay [59] the test system is Bordetella bronchiseptica. The assay can be described thus: Antimicrobial activity against Bordetella bronchiseptica 4614 at 50 ppm after 48 hrs.
Assay [60] concerns Pseudomonas aeruginosa. The assay can be described thus: Antimicrobial activity against Pseudomonas aeruginosa NCTC 10490 at 200 ppm after 48 hrs.
Assay [61] has as its system Pseudomonas aeruginosa. The assay can be described thus: Antimicrobial activity against Pseudomonas aeruginosa NCTC 10490 at 50 ppm after 48 hrs.
Assay [62] has as its system Salmonella enterica subsp. enterica serovar Gallinarum. The assay can be described thus: Antimicrobial activity against Salmonella gallinarum X142 at 100 ppm after 24 hrs.

On to `C=CC(C)(C)c1c(O)c(/C=C/C(=O)O)c2c(c1O)C(=O)CC(C)(C)O2`, for which the outcome (in the assay on Streptococcus pneumoniae [1]; in the assay on Escherichia coli [2]; in assay [3]; in the assay on Staphylococcus aureus [4]; in the assay with Micrococcus luteus [5]; in the assay with Aspergillus niger [6]) was inactive. Also, the result (in assay [7]; in the assay on Bacillus subtilis [8]; in assay [9]; in the assay on Staphylococcus aureus [10]; in the assay with Pseudomonas aeruginosa [11]) was inactive.
Turning to `COc1c2c(cc3oc(=O)ccc13)OC(C)(C)C=C2`, the outcome (in the assay on Streptococcus pneumoniae [1]; in the assay on Escherichia coli [2]; in [3]; with Staphylococcus aureus [4]; in the assay with Micrococcus luteus [5]; in the assay on Aspergillus niger [6]) was inactive. The result (in assay [7]; in the assay on Bacillus subtilis [8]; in assay [9]; in the assay with Staphylococcus aureus [10]; in the assay with Pseudomonas aeruginosa [11]) was inactive.
Consider `C=CC(C)(C)c1cc2c(O)c3c(c(C(C)(C)C=C)c2oc1=O)OC(C)(C)C=C3`, for which the outcome (in the assay with Streptococcus pneumoniae [1]; in the assay with Escherichia coli [2]; in assay [3]; in the assay with Staphylococcus aureus [4]; with Micrococcus luteus [5]; in the assay with Aspergillus niger [6]) was inactive. Further, the outcome (in assay [7]; in the assay on Bacillus subtilis [8]; in assay [9]; in the assay with Staphylococcus aureus [10]; in the assay on Pseudomonas aeruginosa [11]) was inactive.
For the compound `C=CC(C)(C)c1c(O)c2c(c3ccc(=O)oc13)OC(C)(C)CC2=O`, the result (with Streptococcus pneumoniae [1]; in the assay with Escherichia coli [2]; in assay [3]; in the assay with Staphylococcus aureus [4]; in the assay on Micrococcus luteus [5]; in the assay with Aspergillus niger [6]) was inactive. Also, the outcome (in assay [7]; in the assay with Bacillus subtilis [8]; in assay [9]; in the assay on Staphylococcus aureus [10]; in the assay with Pseudomonas aeruginosa [11]) was inactive.
On to `C=CC(C)(C)c1c2c(c(O)c3ccc(=O)oc13)C=CC(C)(C)O2`, for which the outcome (in assay [12]; in the assay with Staphylococcus aureus [13]; in the assay on Escherichia coli [15]; with Bacillus subtilis [16]; in assay [17]; in assay [18]) was inactive. Moreover, the result (in the assay with Escherichia coli [19]; in assay [20]; in the assay with Micrococcus luteus [21]; in the assay with Micrococcus luteus [22]; with Aspergillus niger [25]; in assay [26]) was inactive. The outcome (in the assay on Escherichia coli [27]; in the assay on Staphylococcus aureus [28]; in the assay on Aspergillus niger [30]; in assay [31]; with Aspergillus niger [32]; in assay [35]) was inactive. Moreover, the result (in the assay with Aspergillus niger [36]; in the assay with Micrococcus luteus [37]; in [7]; in [41]; in the assay on Aspergillus niger [44]; in the assay on Staphylococcus aureus [48]) was inactive. Also, the result (with Staphylococcus aureus [50]; in the assay with Staphylococcus aureus [52]; in the assay with Escherichia coli [53]; in assay [56]; in assay [57]; in the assay with Escherichia coli [58]) was inactive. Moreover, the result in [62] was inactive. Besides, the result (in the assay on Pseudomonas aeruginosa [14]; with Pseudomonas aeruginosa [23]; in the assay on Streptococcus pneumoniae [24]; in the assay with Bacillus subtilis [29]; in the assay on Streptococcus pneumoniae [33]; in assay [34]) was Active. The result (with Micrococcus luteus [38]; with Bacillus subtilis [39]; in the assay with Staphylococcus aureus [40]; in the assay on Streptococcus pneumoniae [42]; in assay [43]; in the assay on Streptococcus pneumoniae [45]) was Active. In addition, the outcome (in the assay on Staphylococcus aureus [46]; in the assay with Bacillus subtilis [47]; in the assay with Staphylococcus aureus [49]; in the assay with Bacillus subtilis [51]; in assay [54]; in the assay with Staphylococcus aureus [55]) was Active. For the same compound, the result (in [59]; with Pseudomonas aeruginosa [60]; in the assay with Pseudomonas aeruginosa [61]) was Active.
